{"source": "patent US8435998B2", "about": "“Crystalline form of posaconazole” (Sandoz AG, priority 2008, dated 2013)", "key": {"[1]": {"assay": "Specific surface area, BET method with nitrogen (NOVA 2000)", "type": "physicochemical", "conditions": "for Specific Surface Area: BET, nitrogen, 77° K", "from_the_text": "The specific surface area of crystalline form IV of posaconazole as such, i.e. as obtained according to the herein described methods, is typically about 10-25 m^2/g±0.5 m^2/g, e.g. about 13-20 m^2/g±0.5 m^2/g, such as about 15-17 m^2/g±0.5 m^2/g, as measured according to the known Multi-Point-BET-method as herein described and as shown in Example 7. This specific surface area of crystalline form IV of posaconazole is about 10-fold larger when compared to that of known crystalline form I. It is known that the specific surface area between a solid and a liquid phase has a direct impact on the dissolution rate and thus on the bioavailability of the pharmaceutical ingredient as described e.g. by the equation by Nernst and Brunner as found in W. Nernst, Z. Phys. Chem. 47 (1904), pp. 52-55. […] Thus, crystalline form IV of posaconazole may advantageously be used as such, i.e. without being micronized, for preparing a pharmaceutical composition, e.g. a liquid suspension or dispersion as herein described—in contrast to known posaconazole forms which are micronized for use in such suspensions as e.g. described in WO 02/80678.\nSpecific surface area measurement was performed with the equipment NOVA 2000 as commercially available from Quantachrome Instruments using the BET method and Nitrogen as the absorbed gas at 77° K (i.e. −196.15° C.) as described e.g. by Medema J, Campagne A.: A Simple Method to Determine Cumulative Surface-Area Distributions of Porous Solids; Journal of Catalysis, Volume 8, Issue 2, pp. 120, 1967. Crystalline form IV of posaconazole was prepared according to Example 4. Crystalline form I was prepared by the method of example 3 described in U.S. Pat. No. 6,958,337."}, "[2]": {"assay": "Median particle size by laser diffraction (Malvern Mastersizer 2000S) in oral suspension", "type": "physicochemical", "conditions": "for Median particle size (d (0.5)-value): in suspension, laser diffraction after 5 min ultrasonic treatment", "from_the_text": "The median particle size of crystalline form IV of posaconazole when used as such, i.e. in a non-micronized form for preparing a pharmaceutical composition in the form of a liquid suspension or dispersion as herein described, has been determined in samples taken from such suspension. Said median particle size is typically about 0.1-0.2 μm±0.05 μm, e.g. 0.14-0.17 μm, such as 0.15 μm, when measured with known laser diffraction methods, e.g. determination of the particle size distribution (Malvern) according to the US-Pharmacopeia (USP) 32 (2009) method <429> and to the European Pharmacopeia (EP) 6 (2008) method 2.9.31. based on the diffraction of laser by particles within the measurement volume (for details see Example 8). In the present invention, the term median particle size is understood to mean the d(0.5) value as determined according to the herein described laser diffraction methods.\nCrystalline form IV as obtained by Example 4 was used to prepare 25 ml of a suspension as follows:\nThe suspension was prepared as follows: 40% of the final amount of Polysorbat 80 and 40% of the final amount of simethicone were mixed and dissolved and/or dispersed in about 12% of the final amount of purified water and homogenized with Ultra Turrax (30 seconds; 27,000 rpm). Subsequently, 1 g of the form IV of posaconazole, i.e. in its non-micronized form, were suspended or dispersed in this mixture under homogenization by Ultra Turrax (27,000 rpm, 2 minutes). The remaining 60% of Polysorbat 80 and of simethicone and 32% of the final amount of the purified water were added and mixed followed by the addition of sodium benzoate, sodium citrate dihydrate and citric acid monohydrate. After further mixing, xanthan gum was added to the mixture under stirring, followed by a 30 minutes phase of hydratization without mixing. Subsequently, glycerol and liquid glucose as well as titanium dioxide and the remaining portion of 56% of the final amount of purified water were added under mixing with a suitable homogenizer until a uniform suspension was obtained.\n25 ml of a similar suspension were prepared analogously using non-micronized crystalline form I of posaconazole which was prepared by the method of example 3 described in U.S. Pat. No. 6,958,337.\nAdditionally, NOXAFIL® oral suspension (40 mg/ml) as commercially available from Medizone Germany GMBH (US product) was used to determine the particle size distribution of micronized form I of posaconazole which was contained in this known suspension.\nThe particle size distribution (Malvern) was measured according to the USP 32 (2009) method <429> and EP 6 (2008) method 2.9.31. based on the diffraction of laser by particles using a Mastersizer 2000S liquid dispersion system. The particle size measurement was started after ultrasonic treatment of the sample for 5 min."}, "[3]": {"conditions": "on storage as micronised powder, during manufacture or as formulated in the finished product; cited from earlier work"}, "[4]": {"assay": "Dissolution of suspensions, USP 32 method <711>, apparatus II (Paddle)", "type": "physicochemical", "conditions": "25 rpm, 0.3% SLS aqueous solution", "description": "The liquid suspensions containing non-micronized crystalline form IV or non-micronized crystalline form I as well as the NOXAFIL® oral suspension containing micronized crystalline form I described in Example 8 were tested for their dissolution behaviour.\nDissolution was tested according to USP 32 (2009) method <711> (USP apparatus II (Paddle); 25 rpm; dissolution medium: 0.3% SLS aqueous solution). Posaconazole concentrations were determined with an online photometer (UV absorption at 260 nm).\nThe results are shown in Table 4 below wherein values are the amount of posaconazole dissolved in %, and in more detail in FIG. 6 wherein the amount of posaconazole dissolved in % is plotted versus time in minutes."}, "[5]": {"assay": "Moisture sorption isotherm (SPS-11)", "type": "physicochemical", "conditions": "90% relative humidity, 25° C.", "description": "The moisture sorption isotherm was recorded with a SPS-11 moisture sorption analyzer (MD Mess-technik, Ulm, D). The measurement cycle was started at 0% relative humidity (RH), increased in 10% steps up to 90% RH and in a 5% step up to 95% RH. The equilibrium condition for each step was set to a constant mass±0.003% over 49 min. The temperature was 25±0.1° C.\nThe water content of the obtained crystalline form IV was 2.43%. […] The maximum water content peaks at 3.7% at 90% relative humidity, which corresponds to a water mol ratio of 1.5 (FIG. 4)."}, "[6]": {"assay": "Polymorphic stability suspended in water and stirred", "type": "physicochemical", "conditions": "suspended in water and stirred for 1 week at ambient temperature"}, "[7]": {"assay": "Storage stability of the solid form (degradation or polymorphic conversion by HPLC, IR or XRPD)", "type": "physicochemical", "description": "Crystalline form IV is stable under storage conditions which are typical for pharmaceutical compositions and is thus suitable for the preparation of medicaments. Typical storage conditions are, for example, storage at ambient temperature, such as about 20° C. to about 30° C., for several months (e.g., for at least 5 months, preferably at least 12 months, more preferably at least 24 months) in a closed vial.\nIn experiments crystalline form IV was stable during storage for 63 days at ambient temperature. Even when stored for 4 weeks at 40° C., crystalline form IV was stable.\nIn this context, “stable” means that neither degradation nor polymorphic conversion to another polymorphic form of crystalline form IV can be detected, for example by HPLC, IR or XRPD analysis as defined herein."}, "[8]": {"assay": "Stability of form IV in an aqueous pharmaceutical composition (XRPD)", "type": "physicochemical", "conditions": "aqueous pharmaceutical suspension stirred at ambient temperature for 1 week", "description": "The stability of form IV in an aqueous pharmaceutical composition was investigated. 240 mg form IV were suspended in a 4 ml aqueous suspension consisting of a mixture of 19 mg sodium benzoate, 3 mg citric acid, 19 mg xanthan gum, 60 mg Polysorbat 80, 600 mg glycerine and 2 g liquid glucose. The suspension was stirred at ambient temperature for 1 week."}, "[9]": {"assay": "Equilibrium solubility method in water", "type": "physicochemical", "description": "The solubility of crystalline form IV was determined by the equilibrium solubility method. A saturated solution of form IV, obtained by stirring 250 mg form IV in 6 ml water overnight, was prepared. The sample was filtered through a 0.45 μm membrane filter and the concentration of form IV in the filtrate was measured using a Perkin Elmer Lambda 35 UV/VIS spectrophotometer (λ=260 nm)."}, "[10]": {"conditions": "WO 99/18097; cited from earlier work"}, "[11]": {"conditions": "cited from earlier work"}, "[12]": {"conditions": "listed as crystalline form IV of posaconazole"}}, "note": "“And” between values parts separate entries of the source, which are not always exact repeats. Equal entries are not always repeated.", "data": [{"molecule": "CC[C@@H]([C@H](C)O)n1ncn(-c2ccc(N3CCN(c4ccc(OC[C@@H]5CO[C@@](Cn6cncn6)(c6ccc(F)cc6F)C5)cc4)CC3)cc2)c1=O", "note": "[Crystalline Form I, posaconazole]", "values": [{"measurement": "Specific Surface Area", "setting": "[1]; listed as Crystalline Form I of posaconazole", "value": "1.5 m^2/g and 1.6 m^2/g"}, {"measurement": "Median particle size (d (0.5)-value)", "setting": "[2]; listed as Crystalline Form I (non-micronized)", "value": 12.88, "unit": "μm"}, {"measurement": "polymorphic transition", "setting": "[3]", "value": "no evidence of polymorphic transition"}, {"measurement": "amount of posaconazole dissolved", "setting": "[4]; 3 min, listed as Crystalline Form I non-micronized", "value": 29, "unit": "%"}, {"measurement": "amount of posaconazole dissolved", "setting": "[4]; 25 min, listed as Crystalline Form I non-micronized", "value": 61, "unit": "%"}]}, {"molecule": "CC[C@@H]([C@H](C)O)n1ncn(-c2ccc(N3CCN(c4ccc(OC[C@@H]5CO[C@@](Cn6cncn6)(c6ccc(F)cc6F)C5)cc4)CC3)cc2)c1=O", "note": "[Crystalline Form IV, 2,5-anhydro-1,3,4-trideoxy-2-C-(2,4-difluorophenyl)-4-[[4-[4-[4-[1-[(1S,2S)-1-ethyl-2-hydroxypropyl]-1,5-dihydro-5-oxo-4H-1,2,4-triazol-4-yl]phenyl]-1-piperazinyl]phenoxy]methyl]-1-(1H-1,2,4-triazol-1-yl)-D-threo-pentitol]", "values": [{"measurement": "maximum water content (moisture sorption)", "setting": "[5]", "value": 3.7, "unit": "%"}, {"measurement": "water mol ratio at maximum water content", "setting": "[5]", "value": 1.5}, {"measurement": "transformation into another form", "setting": "[6]", "value": "not susceptible to transformation into another form"}, {"measurement": "stability during storage", "setting": "[7]; 4 weeks at 40° C.", "value": "stable"}, {"measurement": "stability during storage", "setting": "[7]; 63 days at ambient temperature", "value": "stable"}, {"measurement": "stability in aqueous suspension (XRPD)", "setting": "[8]", "value": "remained stable"}, {"measurement": "solubility", "setting": "[9]; thermodynamic from solid, saturated solution in water, stirred overnight, 0.45 μm filtered, UV 260 nm", "value": 2.1, "unit": "µg/mL"}, {"measurement": "solubility compared with form I", "setting": "[9]; water, equilibrium solubility", "value": "more than two times higher"}, {"measurement": "Specific Surface Area", "setting": "[1]; listed as Crystalline Form IV of posaconazole", "value": "15.5 m^2/g and 15.7 m^2/g"}, {"measurement": "Specific Surface Area", "setting": "[1]; [12]", "value": "10-25 m^2/g"}, {"measurement": "specific surface area relative to crystalline form I", "setting": "[1]; larger than form I", "value": "about 10 fold"}, {"measurement": "Median particle size (d (0.5)-value)", "setting": "[2]; listed as Crystalline Form IV (non-micronized)", "value": 0.15, "unit": "μm"}, {"measurement": "Median particle size (d (0.5)-value)", "setting": "[2]; [12]", "value": "0.1-0.2 μm"}, {"measurement": "median particle size relative to micronized form I", "setting": "[2]; smaller than micronized form I", "value": "about 10 fold"}, {"measurement": "median particle size relative to non-micronized form I", "setting": "[2]; smaller than non-micronized form I", "value": "about 90 fold"}, {"measurement": "amount of posaconazole dissolved", "setting": "[4]; 3 min, listed as Crystalline Form IV non-micronized", "value": 82, "unit": "%"}, {"measurement": "amount of posaconazole dissolved", "setting": "[4]; 25 min, listed as Crystalline Form IV non-micronized", "value": 100, "unit": "%"}]}, {"molecule": "CC[C@@H]([C@H](C)O)n1ncn(-c2ccc(N3CCN(c4ccc(OC[C@@H]5CO[C@@](Cn6cncn6)(c6ccc(F)cc6F)C5)cc4)CC3)cc2)c1=O", "note": "[Crystalline form II, posaconazole]", "values": [{"measurement": "stability under the conditions investigated", "setting": "[10]", "value": "unstable"}]}, {"molecule": "CC[C@@H]([C@H](C)O)n1ncn(-c2ccc(N3CCN(c4ccc(OC[C@@H]5CO[C@@](Cn6cncn6)(c6ccc(F)cc6F)C5)cc4)CC3)cc2)c1=O", "note": "[posaconazole, 2,5-anhydro-1,3,4-trideoxy-2-C-(2,4-difluorophenyl)-4-[[4-[4-[4-[1-[(1S,2S)-1-ethyl-2-hydroxypropyl]-1,5-dihydro-5-oxo-4H-1,2,4-triazol-4-yl]phenyl]-1-piperazinyl]phenoxy]methyl]-1-(1H-1,2,4-triazol-1-yl)-D-threo-pentitol]", "values": [{"measurement": "log P", "setting": "[11]", "value": "> 3"}]}]}
